As a reminder, the IC50 is the concentration that inhibits the measured activity by half. A high value points to lower potency.

34 compounds from USRE48711E1, “Apoptosis signal-regulating kinase inhibitors” (Gilead Sciences, Inc., priority 2009, dated 2021) can be followed below.

Read-outs that look alike come from different tables or passages of the source.

The assay has as its target ASK1 (Apoptosis Signal-Regulating Kinase 1) (Homo sapiens (Human), UniProt Q99683). The experiment in a line: ASK1 (Apoptosis Signal-Regulating Kinase 1) TR-FRET Kinase Assay (Biochemical IC50). For orientation: TR-FRET usually uses a lanthanide donor and a delayed reading to cut background.
The mark [1] stands for this setting: TR-FRET, biotin-MBP substrate, 20 min pre-incubation, ATP added as 300 μM solution.

Sequence of ASK1 (Apoptosis Signal-Regulating Kinase 1) (Q99683 649-946): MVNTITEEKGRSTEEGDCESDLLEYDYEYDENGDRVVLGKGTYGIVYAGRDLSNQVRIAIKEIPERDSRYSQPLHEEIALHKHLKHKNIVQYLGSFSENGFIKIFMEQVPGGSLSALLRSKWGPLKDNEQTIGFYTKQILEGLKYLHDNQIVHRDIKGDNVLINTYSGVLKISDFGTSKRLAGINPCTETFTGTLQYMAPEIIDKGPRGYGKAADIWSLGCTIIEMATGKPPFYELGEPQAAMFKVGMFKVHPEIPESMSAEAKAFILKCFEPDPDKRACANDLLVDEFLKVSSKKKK

`O=C(Nc1cccc(-c2nncn2C2CC2)n1)c1cncc(-c2ccc(C3CC3)nc2)c1` [Example 259, 6′-cyclopropyl-N-(6-(4-cyclopropyl-4H-1,2,4-triazol-3-yl)pyridin-2-yl)-3,3′-bipyridine-5-carboxamide] came in with an IC50 under setting [1] of 8 nM.

Under setting [1], `Cc1ccc(-n2cnc(C3CC3)c2)cc1C(=O)Nc1cccc(-c2nncn2C2CC2)n1` [Example 197, 5-(4-cyclopropyl-1H-imidazol-1-yl)-N-(6-(4-cyclopropyl-4H-1,2,4-triazol-3-yl)pyridin-2-yl)-2-methylbenzamide] registered an IC50 of 47 nM.

Under setting [1], `NC(=O)c1ccc(-c2ccnc(C(=O)Nc3cccc(-c4nncn4C4CC4)c3)c2)cn1` [Example 51, N2′-(3-(4-cyclopropyl-4H-1,2,4-triazol-3-yl)phenyl)-3,4′-bipyridine-2′,6-dicarboxamide] registered an IC50 of 8 nM.

In the case of `O=C(Nc1cccc(-c2nncn2C2CC2)n1)c1cccc(-n2cc(C3CC3)nn2)c1` [Example 269, 3-(4-cyclopropyl-1H-1,2,3-triazol-1-yl)-N-(6-(4-cyclopropyl-4H-1,2,4-triazol-3-yl)pyridin-2-yl)benzamide], under setting [1], the half-maximal inhibitory concentration (IC50) came to 23 nM.

For the compound `O=C(Nc1cccc(-c2nncn2C2CC2)c1)c1cc(-c2cnc(C3CC3)cn2)ccn1` [Example 133, N-(3-(4-cyclopropyl-4H-1,2,4-triazol-3-yl)phenyl)-4-(5-cyclopropylpyrazin-2-yl)picolinamide], the midpoint of inhibition under setting [1], the IC50, lay at 10 nM.

In turn, `Cn1c(-c2ccnc(C(=O)Nc3cccc(-c4nncn4C4CC4)c3)c2)nnc1C1CC1` [Example 255, 4-(5-cyclopropyl-4-methyl-4H-1,2,4-triazol-3-yl)-N-(3-(4-cyclopropyl-4H-1,2,4-triazol-3-yl)phenyl)picolinamide] had an IC50 under setting [1] of 685 nM.

Consider `O=C(Nc1cccc(-c2nncn2C2CC2)n1)c1cc(-n2cnc(C(F)(F)F)c2)ccn1` [Example 188, N-(6-(4-cyclopropyl-4H-1,2,4-triazol-3-yl)pyridin-2-yl)-4-(4-(trifluoromethyl)-1H-imidazol-1-yl)picolinamide], for which the IC50 under setting [1] amounted to 6 nM.

Compound `CC(c1ccccc1)n1cnnc1-c1cccc(NC(=O)c2cc(-n3cnc(C4CC4)c3)ccn2)c1` (stereo not shown) [Example 186, 4-(4-cyclopropyl-1H-imidazol-1-yl)-N-(3-(4-(1-phenylethyl)-4H-1,2,4-triazol-3-yl)phenyl)picolinamide] gave a half-inhibitory concentration (IC50) under setting [1] of 30 nM.

In the case of `Cn1cnnc1-c1cccc(NC(=O)c2cc(-c3ccccc3)ccn2)c1` [Example 4, N-(3-(4-methyl-4H-1,2,4-triazol-3-yl)phenyl)-4-phenylpicolinamide], the IC50 under setting [1] worked out at 701 nM.

`Cn1cnnc1-c1cccc(NC(=O)c2cc(N3CCNC(=O)C3)ccn2)c1` [Example 32, N-(3-(4-methyl-4H-1,2,4-triazol-3-yl)phenyl)-4-(3-oxopiperazin-1-yl)picolinamide] registered an IC50 under setting [1] of 569 nM.

`Cc1ccc2c(-c3ccc(C4CC4)nc3)cc(C(=O)Nc3cccc(-c4nncn4C4CC4)c3)nc2c1C` [Example 240, N-(3-(4-cyclopropyl-4H-1,2,4-triazol-3-yl)phenyl)-4-(6-cyclopropylpyridin-3-yl)-7,8-dimethylquinoline-2-carboxamide] displayed an IC50 of 222 nM.

`Cc1ccc(-c2ccnc(C(=O)Nc3cccc(-c4nncn4C4CC4)c3)c2)cn1` [Example 53, N-(3-(4-cyclopropyl-4H-1,2,4-triazol-3-yl)phenyl)-6-methyl-3,4′-bipyridine-2′-carboxamide]: the IC50 under setting [1] came to 11 nM.

Under setting [1], `O=C(Nc1cccc(-c2nncn2C2CC2)n1)c1cc(-n2cnc(C3CC3)n2)ccn1` [Example 201, 4-(3-cyclopropyl-1H-1,2,4-triazol-1-yl)-N-(6-(4-cyclopropyl-4H-1,2,4-triazol-3-yl)pyridin-2-yl)picolinamide] gave an IC50 of 14 nM.

Under setting [1], `O=C(Nc1cccc(-c2nncn2C2CC2)c1)c1cc(-n2cnc3c2CCNC3C(F)(F)F)ccn1` (stereo not shown) [Example 194, N-(3-(4-cyclopropyl-4H-1,2,4-triazol-3-yl)phenyl)-4-(4-(trifluoromethyl)-4,5,6,7-tetrahydro-1H-imidazo[4,5-c]pyridin-1-yl)picolinamide] came in with an IC50 of 12 nM.

In the case of `CSc1ccc(-c2ccnc(C(=O)Nc3cccc(-c4nncn4C4CC4)c3)c2)cn1` [Example 131, N-(3-(4-cyclopropyl-4H-1,2,4-triazol-3-yl)phenyl)-6-(methylthio)-3,4′-bipyridine-2′-carboxamide], inhibition under setting [1] was half-maximal at 11 nM (IC50).

Consider `CS(=O)(=O)N1CCN(c2ccnc(C(=O)Nc3cccc(-c4nncn4C4CC4)c3)c2)CC1` [Example 137, N-(3-(4-cyclopropyl-4H-1,2,4-triazol-3-yl)phenyl)-4-(4-(methylsulfonyl)piperazin-1-yl)picolinamide], for which the IC50 under setting [1] came to 31 nM.

Consider `O=C(Nc1cccc(-c2nncn2C2CC2)n1)c1cc(-n2cnc3c2CCCC3)ccn1` [Example 187, N-(6-(4-cyclopropyl-4H-1,2,4-triazol-3-yl)pyridin-2-yl)-4-(4,5,6,7-tetrahydro-1H-benzo[d]imidazol-1-yl)picolinamide], for which the IC50 under setting [1] came to 4 nM.

`O=C(Nc1cccc(-c2nncn2CC2CC2)c1)c1cc(-n2cnc(C3CC3)c2)ccn1` [Example 185, 4-(4-cyclopropyl-1H-imidazol-1-yl)-N-(3-(4-(cyclopropylmethyl)-4H-1,2,4-triazol-3-yl)phenyl)picolinamde] came in with an IC50 under setting [1] of 34 nM.

Compound `CCc1cc(-c2ccnc(C(=O)Nc3cccc(-c4nncn4C4CC4)c3)c2)cnc1CC` [Example 141, N-(3-(4-cyclopropyl-4H-1,2,4-triazol-3-yl)phenyl)-5,6-diethyl-3,4′-bipyridine-2′-carboxamide] returned an IC50 under setting [1] of 13 nM.

`O=C(Nc1cccc(-c2nncn2C2CC2)c1)c1cc(-c2cnc(C3CC3)nc2)ccn1` [Example 123, N-(3-(4-cyclopropyl-4H-1,2,4-triazol-3-yl)phenyl)-4-(2-cyclopropylpyrimidin-5-yl)picolinamide] gave an IC50 under setting [1] of 10 nM.

Consider `O=C(Nc1cccc(-c2nncn2C2CC2)c1)c1cc(-c2ccc(-c3ccc(Cl)nc3)nc2)ccn1` [Example 70, 6-Chloro-[3,2′:5′,4′]terpyridine-2″-carboxylic acid [3-(4-cyclopropyl-4H-[1,2,4]triazol-3-yl)-phenyl]-amide], for which, under setting [1], the half-maximal inhibitory concentration (IC50) was determined as 106 nM.

As to `COc1ccc2ncc(-c3ccnc(C(=O)Nc4cccc(-c5nncn5C5CC5)c4)c3)cc2c1` [Example 251, N-(3-(4-cyclopropyl-4H-1,2,4-triazol-3-yl)phenyl)-4-(6-methoxyquinolin-3-yl)picolinamide], under setting [1], the IC50 came out at 7 nM.

Turning to `CCc1ncc(-c2ccnc(C(=O)Nc3cccc(-c4nncn4C4CC4)c3)c2)cc1Cl` [Example 139, 5-chloro-N-(3-(4-cyclopropyl-4H-1,2,4-triazol-3-yl)phenyl)-6-ethyl-3,4′-bipyridine-2′-carboxamide], the IC50 under setting [1] amounted to 16 nM.

`Cc1ncccc1-c1ccnc(C(=O)Nc2cccc(-c3nncn3C3CC3)c2)c1` [Example 74, N-(3-(4-cyclopropyl-4H-1,2,4-triazol-3-yl)phenyl)-2-methyl-3,4′-bipyridine-2′-carboxamide]: the IC50 under setting [1] is 79 nM.

As to `Cc1ccc(C(=O)Nc2cccc(-c3nncn3C3CC3)n2)cc1-n1cnc(C2CC2)c1` [Example 200, 3-(4-cyclopropyl-1H-imidazol-1-yl)-N-(6-(4-cyclopropyl-4H-1,2,4-triazol-3-yl)pyridin-2-y1)-4-methylbenzamide], under setting [1], it took 11 nM to reach half-maximal inhibition (IC50).

`O=C(Nc1cccc(-c2nncn2C2CC2)n1)c1cc(-c2cccnc2)ccn1` [Example 54, N-(6-(4-cyclopropyl-4H-1,2,4-triazol-3-yl)pyridin-2-yl)-3,4′-bipyridine-2′-carboxamide]: under setting [1], the IC50 worked out at 5 nM.

Regarding `O=C(Nc1cccc(-c2cncn2C2CC2)n1)c1cc(-c2cnc3ccccc3c2)ccn1` [Example 126, N-(6-(1-cyclopropyl-1H-imidazol-5-yl)pyridin-2-yl)-4-(quinolin-3-yl)picolinamide], the concentration for half-maximal inhibition (IC50) under setting [1] amounted to 1040 nM.

For the compound `C[C@H](n1cnnc1-c1cccc(NC(=O)c2cc(-n3cnc(C4CC4)c3)ccn2)c1)C(F)(F)F` [Example 189, (S)-4-(4-cyclopropyl-1H-imidazol-1-yl)-N-(3-(4-(1,1,1-trifluoropropan-2-yl)-4H-1,2,4-triazol-3-yl)phenyl)picolinamide], the IC50 under setting [1] worked out at 9 nM.

The compound `C[C@@H](O)Cn1cnnc1-c1cccc(NC(=O)c2cc(-c3cccnc3)ccn2)c1` [Example 34, (R)-N-(3-(4-(2-hydroxypropyl)-4H-1,2,4-triazol-3-yl)phenyl)-3,4′-bipyridine-2′-carboxamide] returned a 50% inhibitory concentration (IC50) of 195 nM.

`O=C(Nc1cccc(-c2nncn2C2CC2)c1)c1cc(-c2ccc(CC3CC3)nc2)ccn1` [Example 268, N-(3-(4-cyclopropyl-4H-1,2,4-triazol-3-yl)phenyl)-6-(cyclopropylmethyl)-3,4′-bipyridine-2′-carboxamide] displayed an IC50 under setting [1] of 13 nM.

For `O=C(Nc1cccc(-c2nncn2C2CC2)n1)c1cccc(-n2cnc3c2CCCC3)c1` [Example 212, N-(6-(4-cyclopropyl-4H-1,2,4-triazol-3-yl)pyridin-2-yl)-3-(4,5,6,7-tetrahydro-1H-benzo[d]imidazol-1-yl)benzamide], under setting [1], half-maximal inhibition (IC50) required 9 nM.

For `O=C(Nc1cccc(-c2nncn2C2CC2)n1)c1cccc(-c2ccc(C3CC3)nc2)n1` [Example 258, 6′-cyclopropyl-N-(6-(4-cyclopropyl-4H-1,2,4-triazol-3-yl)pyridin-2-yl)-2,3′-bipyridine-6-carboxamide], half-maximal inhibition under setting [1] (IC50) required 852 nM.

Consider `O=C(Nc1cccc(-c2nncn2C2CC2)n1)c1cc(-n2cnc(C3CC3)c2)ccn1` [Example 170, 4-(4-cyclopropyl-1H-imidazol-1-yl)-N-(6-(4-cyclopropyl-4H-1,2,4-triazol-3-yl)pyridin-2-yl)picolinamide], for which the IC50 under setting [1] amounted to 7 nM.

In turn, `O=C(Nc1cccc(-c2nncn2C2CC2)n1)c1cc(-c2ccc(C3CC3)nc2)c2ccccc2n1` [Example 225, N-(6-(4-cyclopropyl-4H-1,2,4-triazol-3-yl)pyridin-2-yl)-4-(6-cyclopropylpyridin-3-yl)quinoline-2-carboxamide] gave an IC50 under setting [1] of 103 nM.
